Laboratory results: article PMC10038264, “A new family of glutamate-gated chloride channels in parasitic sea louse Caligus rogercresseyi: A subunit refractory to activation by ivermectin is dominant in heteromeric assemblies” (PLOS Pathogens, 2023)
Like-named read-outs stand apart in the source and are kept apart here.

What was measured:
CrGluCl-E = test: Two-electrode voltage-clamp of Xenopus oocytes expressing CrGluCl-E; assay type: cell-based, Caligus rogercresseyi; settings: CrGluCl-E alone; glutamate up to 1mM, 1μM ivermectin
Experimental: (§1) Adult female Xenopus laevis frogs were anaesthetized by immersion in a1g/L solution tricaine (Ethyl 3-aminobenzoate methanesulfonate, Sigma) buffered to pH 7 with NaHCO3. Surgery was performed 30–40 min later, once the frog was completely anaesthetized judging by loss of reflexes. Ovarian lobes were removed through 1 cm abdominal incision and then kept at 16°C in Barth’s modified solution containing (in mM): 88 NaCl, 1 KCl, 0.4 CaCl2, 0.3 Ca (NO3)2, 0.8 MgSO4, 2.4 NaHCO3, 5 Hepes, 2.5 sodium pyruvate, 100 μg/ml gentamicin sulfate, 100 U/ml penicillin, 100 μg/ml streptomycin, 250 μg/ml amphotericin B, 0.22μm filtered and adjusted to pH 7.5 with Tris-Base. Osmolarity was brought to 220 mOsm with saccharose. […]
(§2) Current measurements at controlled membrane potentials (voltage-clamp experiments) were performed using two intracellular microelectrodes in defolliculated Xenopus oocytes previously microinjected with 20 ng of cRNA. […] The oocytes were recorded in a chamber (Model RC-1Z, Warner Instrumenst, USA) under continuous superfusion. […] Currents were recorded continuously during the experiments without interruptions for solution changes. […] The signal filtered at 1 kHz was acquired with a Digidata 1440A Analog-to-Digital Converter and analyzed with Axon pClamp 10.6 software. […]

[1] = system: coexpressed CrGluCl-C:CrGluCl-B; test: Voltage-clamp of oocytes coexpressing CrGluCl-C and CrGluCl-B; assay type: cell-based, Caligus rogercresseyi; settings: for Iver response to activation: B:C ratio 1:1, 1 μM ivermectin
Experimental: (§3) Adult female Xenopus laevis frogs were anaesthetized by immersion in a1g/L solution tricaine (Ethyl 3-aminobenzoate methanesulfonate, Sigma) buffered to pH 7 with NaHCO3. Surgery was performed 30–40 min later, once the frog was completely anaesthetized judging by loss of reflexes. Ovarian lobes were removed through 1 cm abdominal incision and then kept at 16°C in Barth’s modified solution containing (in mM): 88 NaCl, 1 KCl, 0.4 CaCl2, 0.3 Ca (NO3)2, 0.8 MgSO4, 2.4 NaHCO3, 5 Hepes, 2.5 sodium pyruvate, 100 μg/ml gentamicin sulfate, 100 U/ml penicillin, 100 μg/ml streptomycin, 250 μg/ml amphotericin B, 0.22μm filtered and adjusted to pH 7.5 with Tris-Base. Osmolarity was brought to 220 mOsm with saccharose. The oocytes were manually defolliculated on the same day of extraction and the following day 20 ng cRNA in nuclease-free water was injected into stage V-VI oocytes using a FemtoJet microinjector (Eppendorf). Finally, the injected oocytes were stored in 96 well plates containing Barth’s modified solution and kept at 16°C until experiment day.
(§4) Current measurements at controlled membrane potentials (voltage-clamp experiments) were performed using two intracellular microelectrodes in defolliculated Xenopus oocytes previously microinjected with 20 ng of cRNA. Voltage-clamp recording was performed at room temperature using a TURBO TEC-10CX amplifier (npi electronic GmbH, Tamm, Germany) and PClamp 10.6 software (Axon Instruments, USA), 1 to 4 days after oocyte injection. The oocytes were recorded in a chamber (Model RC-1Z, Warner Instrumenst, USA) under continuous superfusion. […] Reference was an Ag-AgCl electrode connected to the bath via a 3 M KCl in 3% agar bridge. Currents were recorded continuously during the experiments without interruptions for solution changes. […] The signal filtered at 1 kHz was acquired with a Digidata 1440A Analog-to-Digital Converter and analyzed with Axon pClamp 10.6 software. […]

[2] = system: coexpressed CrGluCl-C:CrGluCl-A; test: Voltage-clamp of oocytes coinjected with CrGluCl-C and CrGluCl-A; assay type: cell-based, Caligus rogercresseyi
Experimental: as §3, §4

[3] = biological target: coexpressed CrGluCl-E:CrGluCl-A (Caligus rogercresseyi, UniProt A0A1W6LZ70); test: Voltage-clamp of oocytes coinjected with CrGluCl-E and CrGluCl-A; assay type: cell-based; settings: E:A ratio 1:1
Experimental: as §1, §2

[4] = system: coexpressed CrGluCl-E:CrGluCl-B; test: Voltage-clamp of oocytes coexpressing CrGluCl-E and CrGluCl-B; assay type: cell-based, Caligus rogercresseyi; settings: for Iver response to activation: B:E ratio 1:1, 1μM ivermectin
Experimental: as §3, §4

[5] = system: coexpressed CrGluCl-E:CrGluCl-C; test: Voltage-clamp of oocytes coexpressing CrGluCl-E and CrGluCl-C; assay type: cell-based, Caligus rogercresseyi; settings: C:E ratio 1:1
Experimental: as §3, §4

CrGluCl-A = CrGluCl-A (Caligus rogercresseyi, UniProt A0A1W6LZ70); settings: cited from earlier work
CeGluClβ (CeGLC-2) = settings: cited from earlier work

CrGluCl-A, sequence (A0A1W6LZ70 entry or part of it): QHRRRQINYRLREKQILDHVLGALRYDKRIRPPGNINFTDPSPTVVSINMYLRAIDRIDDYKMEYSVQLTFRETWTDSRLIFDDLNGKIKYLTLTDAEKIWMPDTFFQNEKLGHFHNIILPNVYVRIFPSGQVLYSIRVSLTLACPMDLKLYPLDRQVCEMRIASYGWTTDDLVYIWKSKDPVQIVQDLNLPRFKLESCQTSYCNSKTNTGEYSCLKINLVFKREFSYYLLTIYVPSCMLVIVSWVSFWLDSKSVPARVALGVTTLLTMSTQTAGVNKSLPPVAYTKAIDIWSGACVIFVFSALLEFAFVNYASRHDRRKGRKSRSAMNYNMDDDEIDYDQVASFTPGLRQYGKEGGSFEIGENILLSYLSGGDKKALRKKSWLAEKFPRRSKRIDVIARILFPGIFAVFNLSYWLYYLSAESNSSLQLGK
coexpressed CrGluCl-E:CrGluCl-A, sequence (A0A1W6LZ70 entry or part of it): as above

N[C@@H](CCC(=O)O)C(=O)O [glutamate, L-glutamate]
response (current activation) (CrGluCl-E): failed to show any response | EC50 ([1]; B:C ratio 1:1): 53 ± 18.8 µM | EC50 ([2]; C:A 1:1, 60 mV, single Hill equation): 7.9 ± 0.9 µM | nH (glutamate) [3]: 2.5 ± 0.3 | EC50 ([4]; B:E ratio 1:1, 60 mV): 534 ± 239 µM | EC50 [5]: 36.5 ± 22.5 µM | nH (glutamate), previously published (CrGluCl-A): 1.33 | EC50 (CrGluCl-A; read-out: EC50 Glutamate, previously published): 6.9 µM | EC50 (CeGluClβ (CeGLC-2); read-out: EC50 glutamate, CeGluClβ): 380 µM

ivermectin
response (current activation) (CrGluCl-E): failed to show any response | Iver response to activation [1]: failed to elicit a significant response | Iver response to activation ([1]; listed as Iver): Insensitive | Iver response to activation ([2]; C:A 1:1, 60mV): Sensitive | Iver response to activation ([2]; C:A 1:1, -80mV): Sensitive | Iver response to activation [3]: Sensitive | Iver response to activation [4]: without any activating effect | Iver response to activation ([4]; listed as Iver): Insensitive | nH (ivermectin) [5]: 2.1 ± 0.67 | nH (ivermectin) ([5]; listed as Iver): 2.1 ± 0.7 | nH (ivermectin) (CrGluCl-A): 2.1 | EC50 (CrGluCl-A; listed as Ivermectin, read-out: EC50 Ivermectin / avermectin irreversible activation): 0.181 µM | EC50 (CrGluCl-A; read-out: EC50 Ivermectin / avermectin irreversible activation): ~0.2 µM | nH (ivermectin inhibition) (CeGluClβ (CeGLC-2); CeGLC-2): -1.74 | IC50 (CeGluClβ (CeGLC-2); read-out: IC50 ivermectin inhibition of glutamate activated current, CeGLC-2): 1.28 µM
